Calls of active or inactive are those of the source.
Columns and labels:
[1] = Shn3 3'UTR reporter inhibitors, dose response, cell-based, Clone20 osteoblasts, firefly luciferase, cherry-picked (AID 624132); format: functional;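 further: firefly luciferase luminescence from reporter carrying the Shn3 3'UTR in osteoblasts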
cells [2] = format: functional, cell-based
HT-1080 = assay: cytotoxicity in HT1080 fibrosarcoma cells, cell-based, fluorescence readout (AID 620); format: functional; conditions: Homo sapiens
[3] = inhibitors of intracellular T. cruzi replication, confirmation, NIH3T3 host cells, beta-gal luminescence (AID 2044); format: functional, cell-based;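 further: intracellular parasites grown in NIH/3T3 mouse fibroblasts as host cells; luminescent beta-galactosidase reporter signal from transgenic T. cruzi replicating inside host cells; inhibitors lower the luminescence signal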
cells [4] = format: functional, cell-based; remark: listed apart in the source
[5] = HepG2 cell cytotoxicity, dose response, cytotoxicity control for Shn3 inhibitor project, CellTiter-Glo, cherry-picked (AID 624134); format: functional, cell-based
[6] = cytotoxicity toward NIH3T3 fibroblasts, dose response, counter-screen, cell-based, ATP luminescence, mouse fibroblasts (AID 2010); format: functional;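 further: cells exposed to compound for about 90 hours before reading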
[7] = molecular target: T1, Luciferin 4-monooxygenase (Photinus pyralis, UniProt P08659); assay: Counter Screen for Luciferase-based Assay Positives. [Related pubchem assays: 620, 618, 411 ]
[8] = control 3'UTR Renilla luciferase suppression, dose response, counter-screen for Shn3 inhibitor project, cell-based, Clone20-Shn3RL, cherry-picked (AID 624133); format: functional
Nonstructural protein 1 = Nonstructural protein 1 (Influenza A virus, UniProt Q194T2); format: functional, Influenza A virus (A/California/07/2009(H1N1))
A-375 [9] = assay: A375 melanoma cell viability reduction, dose response, counter-screen for MITF modulator project, cherry-pick samples, set 2 (AID 540335); format: functional, cell-based; conditions: Homo sapiens
[10] = molecular target: T2, Microphthalmia-associated transcription factor (Homo sapiens, UniProt O75030); assay: TRPM1 promoter luciferase signal decrease, dose response, MITF inhibitor project, cell-based, SK-MEL-5, cherry-picked, set 3 (AID 493073); format: functional
T2 sequence (O75030 whole entry): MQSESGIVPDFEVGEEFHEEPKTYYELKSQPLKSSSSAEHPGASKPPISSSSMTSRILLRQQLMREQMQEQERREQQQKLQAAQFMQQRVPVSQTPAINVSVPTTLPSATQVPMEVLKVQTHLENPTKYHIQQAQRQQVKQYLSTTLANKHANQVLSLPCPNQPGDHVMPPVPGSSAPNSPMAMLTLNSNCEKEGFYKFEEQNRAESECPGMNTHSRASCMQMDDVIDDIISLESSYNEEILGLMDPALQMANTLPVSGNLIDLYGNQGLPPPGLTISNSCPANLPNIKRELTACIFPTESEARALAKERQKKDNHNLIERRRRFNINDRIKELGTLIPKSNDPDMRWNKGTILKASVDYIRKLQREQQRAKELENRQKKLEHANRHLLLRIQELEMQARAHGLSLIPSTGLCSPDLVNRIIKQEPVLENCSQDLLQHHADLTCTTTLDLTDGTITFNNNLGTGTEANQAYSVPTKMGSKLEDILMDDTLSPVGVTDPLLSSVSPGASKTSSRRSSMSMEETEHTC

Coagulation factor XII = molecular target: T3, Coagulation factor XII (Homo sapiens, UniProt P00748); format: functional;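 further: activated factor XIIa alpha cleaving a fluorogenic AMC peptide substrate; inhibitor potency from loss of enzyme activity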
T3 sequence (P00748 whole entry): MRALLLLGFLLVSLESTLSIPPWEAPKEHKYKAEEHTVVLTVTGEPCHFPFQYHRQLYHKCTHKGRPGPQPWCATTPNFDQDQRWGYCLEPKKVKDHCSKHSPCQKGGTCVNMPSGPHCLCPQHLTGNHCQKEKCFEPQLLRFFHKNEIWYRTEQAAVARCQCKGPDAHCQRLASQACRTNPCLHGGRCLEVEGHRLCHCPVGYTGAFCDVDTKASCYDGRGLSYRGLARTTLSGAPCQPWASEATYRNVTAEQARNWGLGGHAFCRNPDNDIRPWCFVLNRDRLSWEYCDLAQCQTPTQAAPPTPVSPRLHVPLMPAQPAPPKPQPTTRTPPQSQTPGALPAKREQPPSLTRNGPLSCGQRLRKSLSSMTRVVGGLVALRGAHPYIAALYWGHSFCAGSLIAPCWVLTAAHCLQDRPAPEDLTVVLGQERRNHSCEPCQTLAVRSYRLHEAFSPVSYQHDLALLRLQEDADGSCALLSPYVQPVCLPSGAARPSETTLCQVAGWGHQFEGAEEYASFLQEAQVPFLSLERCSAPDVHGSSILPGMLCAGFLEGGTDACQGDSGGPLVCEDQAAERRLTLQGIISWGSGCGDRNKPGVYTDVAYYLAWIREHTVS

[11] = molecular target: T4, Replicative DNA helicase DnaB (Mycobacterium tuberculosis, UniProt P9WMR3); assay: DnaB intein splicing inhibitors, dose response, biochemical, cell-free fluorescence (AID 449749); format: functional
T4 sequence (P9WMR3 whole entry): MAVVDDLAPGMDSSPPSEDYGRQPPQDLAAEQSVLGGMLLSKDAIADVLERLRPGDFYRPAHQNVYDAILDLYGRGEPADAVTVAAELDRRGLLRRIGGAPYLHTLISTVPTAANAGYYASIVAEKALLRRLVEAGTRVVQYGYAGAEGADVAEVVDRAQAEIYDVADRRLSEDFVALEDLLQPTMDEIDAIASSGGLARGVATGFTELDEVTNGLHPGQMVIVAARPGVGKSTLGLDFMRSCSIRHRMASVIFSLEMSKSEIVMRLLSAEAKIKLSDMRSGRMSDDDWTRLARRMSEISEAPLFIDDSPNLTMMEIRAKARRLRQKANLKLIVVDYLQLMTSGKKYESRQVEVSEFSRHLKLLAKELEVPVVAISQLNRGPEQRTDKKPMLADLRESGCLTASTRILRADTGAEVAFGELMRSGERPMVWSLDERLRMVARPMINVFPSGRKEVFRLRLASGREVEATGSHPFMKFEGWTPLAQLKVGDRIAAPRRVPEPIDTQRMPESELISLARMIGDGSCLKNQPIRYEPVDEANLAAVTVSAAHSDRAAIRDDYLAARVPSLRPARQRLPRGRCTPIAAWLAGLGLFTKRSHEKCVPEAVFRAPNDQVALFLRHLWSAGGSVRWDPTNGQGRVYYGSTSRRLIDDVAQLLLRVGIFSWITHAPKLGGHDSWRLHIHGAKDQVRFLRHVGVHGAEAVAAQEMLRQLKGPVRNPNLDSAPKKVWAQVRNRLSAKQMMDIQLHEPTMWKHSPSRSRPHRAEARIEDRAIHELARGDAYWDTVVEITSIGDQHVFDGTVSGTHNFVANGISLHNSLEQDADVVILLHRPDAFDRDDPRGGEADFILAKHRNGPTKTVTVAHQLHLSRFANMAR

Protein RecA = molecular target: T5, Protein RecA (Mycobacterium tuberculosis, UniProt P9WHJ3); assay: Fluorescence Cell-Free Homogeneous Dose Retest to Identify Inhibitors of RecA-Intein Splicing Activity. [Related pubchem assays (depositor defined):AID2097, AID2223, AID489010, AID492950]; format: functional
T5 sequence (P9WHJ3 whole entry): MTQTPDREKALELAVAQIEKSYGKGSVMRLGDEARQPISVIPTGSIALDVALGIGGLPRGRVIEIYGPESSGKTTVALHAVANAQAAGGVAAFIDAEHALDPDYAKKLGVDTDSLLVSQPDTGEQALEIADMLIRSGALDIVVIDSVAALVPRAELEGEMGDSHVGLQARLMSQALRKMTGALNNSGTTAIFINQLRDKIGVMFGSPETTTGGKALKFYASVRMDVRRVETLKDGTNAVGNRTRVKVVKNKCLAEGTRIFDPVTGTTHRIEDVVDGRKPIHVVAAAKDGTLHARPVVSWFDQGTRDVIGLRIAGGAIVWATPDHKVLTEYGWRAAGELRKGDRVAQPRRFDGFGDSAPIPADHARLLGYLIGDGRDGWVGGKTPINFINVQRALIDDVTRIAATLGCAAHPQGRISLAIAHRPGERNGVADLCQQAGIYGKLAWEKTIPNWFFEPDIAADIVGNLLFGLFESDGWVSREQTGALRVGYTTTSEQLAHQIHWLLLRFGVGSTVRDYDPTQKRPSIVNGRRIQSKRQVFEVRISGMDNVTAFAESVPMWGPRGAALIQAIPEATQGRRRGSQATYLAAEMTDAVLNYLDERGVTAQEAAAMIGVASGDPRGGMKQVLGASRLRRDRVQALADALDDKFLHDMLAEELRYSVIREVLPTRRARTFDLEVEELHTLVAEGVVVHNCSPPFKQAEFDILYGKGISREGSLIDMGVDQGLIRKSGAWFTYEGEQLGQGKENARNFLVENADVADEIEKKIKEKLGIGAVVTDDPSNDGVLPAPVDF

A-375 [12] = assay: MITF: Counter assay: A375 proliferation Measured in Cell-Based System Using Plate Reader - 2084-03_Inhibitor_Dose_DryPowder_Activity. [Related pubchem assays (depositor defined):AID488944]; format: functional; conditions: Homo sapiens
Escherichia coli = assay: microbe, parasite or virus in culture
[13] = DNA binding of candidate compounds, dose response, artefact control for RAD54 inhibitor project, biochemical, fluorescence polarization, cherry-pick (AID 651673); format: functional
[14] = molecular target: T6, DNA repair and recombination protein RAD54-like (Homo sapiens, UniProt Q92698); assay: inhibitors of human RAD54 branch migration, confirmation, biochemical, fluorescence, cherry-picked samples, dose series (AID 651657); format: functional
T6 sequence (Q92698 whole entry): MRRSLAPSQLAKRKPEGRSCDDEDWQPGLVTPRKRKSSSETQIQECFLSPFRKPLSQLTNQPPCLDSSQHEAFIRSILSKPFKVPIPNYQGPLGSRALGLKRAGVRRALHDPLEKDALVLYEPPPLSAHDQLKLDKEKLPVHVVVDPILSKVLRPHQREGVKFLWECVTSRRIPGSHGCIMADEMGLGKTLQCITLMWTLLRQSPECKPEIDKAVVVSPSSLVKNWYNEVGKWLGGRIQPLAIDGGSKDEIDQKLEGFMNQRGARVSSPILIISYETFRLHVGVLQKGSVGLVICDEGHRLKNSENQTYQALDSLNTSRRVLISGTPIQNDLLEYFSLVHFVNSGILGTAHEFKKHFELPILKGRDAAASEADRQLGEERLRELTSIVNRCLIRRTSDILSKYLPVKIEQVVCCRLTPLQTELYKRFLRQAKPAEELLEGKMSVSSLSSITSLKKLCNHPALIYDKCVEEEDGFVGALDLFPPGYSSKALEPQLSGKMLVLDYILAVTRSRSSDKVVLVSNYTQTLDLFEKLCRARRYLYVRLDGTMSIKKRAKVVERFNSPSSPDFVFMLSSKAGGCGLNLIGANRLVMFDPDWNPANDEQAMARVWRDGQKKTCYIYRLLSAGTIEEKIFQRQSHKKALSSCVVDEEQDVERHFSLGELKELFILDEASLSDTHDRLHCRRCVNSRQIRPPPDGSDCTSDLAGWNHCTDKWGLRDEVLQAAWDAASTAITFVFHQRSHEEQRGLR

[15] = molecular target: Dual specificity tyrosine-phosphorylation-regulated kinase 1A (Rattus norvegicus, UniProt Q63470); format: biochemical, Homo sapiens
[16] = molecular target: T1, Luciferin 4-monooxygenase; assay: firefly luciferase enzyme inhibitors, dose response, biochemical, luminescence (AID 1891)
CAAX prenyl protease 1 = CAAX prenyl protease 1 (Saccharomyces cerevisiae S288c, UniProt P47154); assay: Ste24 protease inhibitors, dose response, biochemical, S. cerevisiae, plate reader, cherry-pick (AID 488815)
Trypsin = Trypsin (Sus scrofa, UniProt P00761); assay: porcine trypsin inhibitors, dose response, selectivity assay for Rce1 protease inhibitor project, biochemical, quenched peptide fluorescence, cherry-pick (AID 488789)
[17] = Luminescence Cell-Based Dose Confirmation HTS to Identify Inhibitors of Platelet Dense Granule Release. [Related pubchem assays: 1663 (Primary HTS), 1678 (Summary of Project)]; format: functional
CAAX prenyl protease 2 = CAAX prenyl protease 2 (Homo sapiens, UniProt Q9Y256); assay: human Rce1 protease inhibitors, dose response, biochemical, yeast membranes, quenched-peptide fluorescence, cherry-pick (AID 588849)
[18] = molecular target: Dual specificity protein phosphatase 3 (Homo sapiens, UniProt P51452); assay: SAR VHR1 Fluorescent Assay for In Vitro dose response studies Set 3. [Related pubchem assays (depositor defined):AID1654, AID1661, AID1878]; format: functional
Sequence of Dual specificity protein phosphatase 3 (P51452 whole entry): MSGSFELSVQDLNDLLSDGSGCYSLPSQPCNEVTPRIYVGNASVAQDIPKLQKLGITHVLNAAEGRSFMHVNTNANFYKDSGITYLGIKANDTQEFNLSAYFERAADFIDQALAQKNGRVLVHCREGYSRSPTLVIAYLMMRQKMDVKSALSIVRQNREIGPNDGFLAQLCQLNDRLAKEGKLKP

T1 sequence (P08659 whole entry): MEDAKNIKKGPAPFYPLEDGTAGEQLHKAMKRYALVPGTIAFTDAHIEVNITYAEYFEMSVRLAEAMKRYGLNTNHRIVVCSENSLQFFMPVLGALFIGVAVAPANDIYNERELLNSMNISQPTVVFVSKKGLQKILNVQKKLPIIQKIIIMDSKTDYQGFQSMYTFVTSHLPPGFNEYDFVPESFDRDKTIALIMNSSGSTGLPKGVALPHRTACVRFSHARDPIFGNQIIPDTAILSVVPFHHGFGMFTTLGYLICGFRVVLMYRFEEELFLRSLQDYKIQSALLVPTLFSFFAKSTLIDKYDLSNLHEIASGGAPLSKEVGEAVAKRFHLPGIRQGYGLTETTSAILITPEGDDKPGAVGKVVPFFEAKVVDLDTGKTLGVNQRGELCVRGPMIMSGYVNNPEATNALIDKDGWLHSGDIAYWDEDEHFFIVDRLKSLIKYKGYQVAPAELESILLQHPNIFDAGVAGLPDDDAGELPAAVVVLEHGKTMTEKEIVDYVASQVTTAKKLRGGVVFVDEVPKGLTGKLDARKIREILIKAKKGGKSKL
Sequence of CAAX prenyl protease 1 (P47154 whole entry): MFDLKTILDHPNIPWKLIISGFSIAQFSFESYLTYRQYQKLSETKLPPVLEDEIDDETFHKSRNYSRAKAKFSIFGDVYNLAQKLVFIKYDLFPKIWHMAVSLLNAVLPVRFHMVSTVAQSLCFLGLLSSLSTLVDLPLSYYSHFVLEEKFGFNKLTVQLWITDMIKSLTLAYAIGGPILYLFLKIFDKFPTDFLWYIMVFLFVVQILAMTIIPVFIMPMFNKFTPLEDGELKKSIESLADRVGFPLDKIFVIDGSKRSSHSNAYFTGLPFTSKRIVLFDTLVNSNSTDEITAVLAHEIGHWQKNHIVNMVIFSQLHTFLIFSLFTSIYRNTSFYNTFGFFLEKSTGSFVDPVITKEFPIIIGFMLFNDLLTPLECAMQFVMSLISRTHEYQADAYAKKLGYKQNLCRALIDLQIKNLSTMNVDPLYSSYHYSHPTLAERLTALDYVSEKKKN
Sequence of CAAX prenyl protease 2 (Q9Y256 whole entry): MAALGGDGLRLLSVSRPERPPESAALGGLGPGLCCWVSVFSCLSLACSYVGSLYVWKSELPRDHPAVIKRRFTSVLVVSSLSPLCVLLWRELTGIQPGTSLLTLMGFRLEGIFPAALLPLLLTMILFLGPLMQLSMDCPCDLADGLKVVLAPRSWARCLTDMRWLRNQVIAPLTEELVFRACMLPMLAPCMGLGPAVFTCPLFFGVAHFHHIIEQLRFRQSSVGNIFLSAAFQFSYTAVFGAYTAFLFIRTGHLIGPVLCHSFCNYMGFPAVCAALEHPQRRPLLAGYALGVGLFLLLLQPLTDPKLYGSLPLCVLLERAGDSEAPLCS
Sequence of Trypsin (P00761 whole entry): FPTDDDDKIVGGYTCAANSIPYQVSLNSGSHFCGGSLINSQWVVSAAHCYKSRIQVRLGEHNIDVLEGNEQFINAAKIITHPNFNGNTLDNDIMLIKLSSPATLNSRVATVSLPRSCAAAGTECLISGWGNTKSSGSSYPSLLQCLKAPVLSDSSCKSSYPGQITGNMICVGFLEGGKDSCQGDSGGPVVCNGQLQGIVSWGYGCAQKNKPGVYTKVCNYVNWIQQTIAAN
Sequence of Nonstructural protein 1 (Q194T2 whole entry): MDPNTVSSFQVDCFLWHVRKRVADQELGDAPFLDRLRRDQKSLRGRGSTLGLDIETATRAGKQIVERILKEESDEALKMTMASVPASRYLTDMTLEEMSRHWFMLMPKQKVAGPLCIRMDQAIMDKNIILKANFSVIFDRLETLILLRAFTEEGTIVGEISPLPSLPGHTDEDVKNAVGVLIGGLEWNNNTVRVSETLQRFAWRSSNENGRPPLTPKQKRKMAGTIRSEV

Oc1c(CN2CCCCC2)cc(COCc2ccccc2)c2cccnc12
AC50 [1]: 0.537 µM (active)
EC50 (cells [2]): 7.62 µM (active)
EC50 (HT-1080): 27.9 µM (active)
EC50 [3]: 4.04 µM (active)
EC50 (cells [4]): > 350 µM (not active)
AC50 [5]: 10.8 µM (active)
EC50 [6]: 6.52 µM (active)
EC50 [7]: > 100 µM (not active)
AC50 [8]: 7.15 µM (active)
IC50 (Nonstructural protein 1): 1.86 µM (active)
AC50 (A-375 [9]): 13.5 µM (active)
AC50 [10]: 2.17 µM (active)

O=c1c(Cl)c(Cl)cnn1Cc1ccc(F)cc1
IC50 (Coagulation factor XII): > 50 µM (inactive)
AC50 [11]: 39.5 µM (active)
EC50 (Protein RecA): 11.3 µM (active)
AC50 [10]: 8.9 µM (active)
AC50 (A-375 [12]): 30.8 µM (active)

COc1ccccc1C(C[N+](=O)[O-])c1c[nH]c2ccccc12 (centres undefined)
AC50 (Escherichia coli): 90.9 µM (active)

COc1ccc2cc3cc(C(=O)NCCCN4CCOCC4)oc3nc2c1
AC50 [13]: 55.3 µM (active)
EC50 [3]: 2.2 µM (active)
EC50 [6]: > 60 µM (not active)
AC50 [14]: 36.7 µM (active)
AC50 [15]: 5.51 µM (active)

CCn1c(-c2cccs2)nc2ccccc21
EC50 [16]: > 112 µM (not active)
AC50 (CAAX prenyl protease 1): 2.54 µM (active)
AC50 (Trypsin): 6.83 µM (active)
EC50 [17]: > 112 µM (not active)
AC50 (CAAX prenyl protease 2): 11.6 µM (active)

CSc1ccc2nc(Nc3nnc(-c4ccc5c(c4)OCCO5)o3)sc2c1
IC50 [18]: 0.682 µM (active)
